From patent publication US9725490B2, “ERAP1-derived peptide and use thereof” (TOKUSHIMA UNIVERSITY, priority 2011, dated 2017)
Where no end group is shown, it is not given here.

Key:
[1] = system: PHB2/REA (Ser39) phosphorylation; assay: Okadaic acid treatment, immunoblotting of PHB2/REA phosphorylation, MCF-7; type: cell-based, human
Method: FIG. 31-2 is a diagram illustrating that phosphorylation of ERAP1 by PKA and PKB regulates phosphorylation of PHB2/REA (S39) through the PP1α activity. […] (S39) is caused. MCF-7 cells suppressed for expression of PKA by siRNA method, were stimulated with 10 nM E2 for 24 hours. In addition, MCF-7 cells were treated with H-89 for 30 minutes and washed with PBS. Then, immediately, the cells were stimulated with 10 nM E2 for 24 hours. […] Then, immediately, the cells were stimulated with 10 nM E2 for 24 hours. […] MCF-7 cells suppressed for expression of PKCα by siRNA method were treated with 10 μM ERAP1 peptide. Then, immediately, the cells were stimulated with 10 nM E2 for 24 hours. The cells were fractionated into cytoplasm and nuclear fractions by specific gravity centrifugation.

[2] = system: PHB2/REA localization in MCF-7 cells; assay: Nuclear translocation of PHB2/REA (fractionation, immunoblotting, immunostaining); type: cell-based, human; conditions: 1 hour to 24 hours after administration
Method: FIG. 3-1 is a diagram illustrating that ERAP1-peptide treatment promotes nuclear translocation of PHB2. […] MCF-7 cells were stimulated for 24 hours with 10 μM ERAP1-peptide and/or 10 nM E2. The cells were fractioned into mitochondria, cytoplasm, and nuclear fractions by specific gravity centrifugation. Then, each fraction was subjected to immunoblotting analysis using an anti-ERAP1 antibody and an anti-PHB2 antibody. PRDX3, α/β-Tublin (Tublin) and lamin B are markers for mitochondria, cytoplasm, and nuclear fractions, respectively (upper panel). The protein content of each fraction was evaluated with Coomassie-stained SDS-PAGE gel (lower panel). […] KPL-3C cells were treated for 24 hours with 10 μM HA-tagged ERAP1-peptide and/or 10 nM E2. Then, the cells were fractionated into cytoplasm and nuclear fractions by specific gravity centrifugation. Then, which fraction was immunoprecipitated with anti-ERα antibody, an anti-ERAP1 antibody or an anti-PHB2 antibody. Then, immunoblotting was performed with each antibody shown in the figure (an anti-ERAP1 antibody, an anti-ERα antibody, an anti-PHB2 antibody and an anti-HA antibody (Peptide)). α/β-Tubulin (Tubulin) and Lamin B are markers for cytoplasm and nuclear fractions, respectively.
FIG. 4-1 is a diagram illustrating that the ERAP1-peptide promotes nuclear translocation of PHB2. (A) The upper panel illustrates representative images of stained immune cells, showing the intracellular localization of PHB2. MCF-7 cells were treated with 10 μM ERAP1-peptide or ERAP1-scramble peptide. Subsequently, the cells were treated with 10 nM E2. After the immobilization, the cells were subjected to immunofluorescent staining using an anti-PHB2 antibody and DAPI (for discriminating the nucleus).
FIG. 4-2 is a diagram illustrating that the ERAP1-peptide promotes nuclear translocation of PHB2. (B) is a diagram illustrating the results of immunoblotting analysis by which the intracellular localization of PHB2 was detected, MCF-7 cells were treated with the ERAP1-peptide or the ERAP1-scramble peptide. Subsequently immediately, the cells were treated with 10 nM E2. The cells were fractionated into cytoplasm and nuclear fractions after 1 hour or 24 hours. Each fraction was immunoprecipitated with anti-ERα antibody, an anti-ERAP1 antibody or a PH82 antibody. […]
MCF-7 cells were seeded in an 8-well chamber (Laboratory-Tek II Chamber Slide System, Nalgen Nunc International, Naperville, Ill., USA) in 5×10^4 cells/well, and cultured under estrogen-free condition for 24 hours. […] The fluorescence image was obtained under Olympus IX71 microscope (Tokyo, Japan). […]

[3] = system: transcriptional activity of ERα (ERE); assay: ERE-luciferase reporter assay in MCF-7 cells; type: cell-based, human; conditions: 10 nM E2 24 hours
Method: FIG. 3-2 is a diagram illustrating promotion effect of PHB2 nuclear translocation and suppression effect of the transcriptional activation of ER by ERAP1-peptide treatment. (C) illustrates representative images of stained immune cells, showing the localization of the ERAP1-peptide (HA-tagged ERAP1-peptide) and PHB2. MCF-7 cells were treated with 10 μM HA-tagged ERAP1-peptide for 24 hours in the presence or in the absence of 10 nM E2. After the immobilization, the cells were subjected to immunonfluorescent staining using an anti-HA antibody, an anti-PHB2 antibody and DAPI (for discriminating the nucleus). The arrow indicates the nuclear-translocated ERAP1-peptide. […] Then, immediately, the cells were stimulated with 10 nM E2 for 24 hours. TAM indicates the tamoxifen treatment.
FIG. 3-3 is as diagram illustrating the results of the luciferase assay by which the inhibition effect of the ERAP1-peptide was evaluated. MCF-7 cells temporarily transfected with an ERE-luciferase reporter vector (F) or an AP-1-luciferase reporter vector (F) were treated with the ERAP1-peptide, the scramble peptide or the mutant peptide in the concentrations shown in the […]. Then, immediately, the cells were stimulated with 10 nM E2 for 24 hours. TAM indicates the tamoxifen treatment.
FIG. 4-3 is a diagram illustrating that the ERAP1-peptide promotes nuclear translocation of PHB2. (C) and (D) are figures that show the results of the luciferase assay by which the inhibition effect of the ERAP1-peptide on the ERα transcriptional activity was evaluated. MCF-7 cells temporarily transfected with an ERE-luciferase reporter vector (C) or an AP-1-luciferase reporter vector (D) were treated with the ERAP1-peptide in the concentrations shown in the figure or 10 nM tamoxifen. Then, immediately, the cells were stimulated with 10 nM E2 thr 24 hours.
For ERE reporter assay, MCF-7 cells were transfected with ERE reporter (SABiosciences, Frederick, Md., USA) in accordance with the instruction of the manufacturer. For AP-1 reporter assay, MCF-7 cells were transfected with AP-1 reporter (mouse IL-11 promoter comprising two tandem AP-1 sites subcloned into PGL2-basic vector), c-fos, c-Jun and pRL-TK as an internal standard. After 16 hours from the transfection, the culture medium was exchanged with an assay culture medium (Opti-MEM, 10% FBS, 0.1 mM NEAA, 0.1 mM Sodium pyruvate and 10 μg/ml insulin) After 24 hours from the transfection, the cells were treated with E2 and/or the ERAP1-peptide or 24 hours. The cells were harvested, and the activities of luciferase and Renilla-luciferase were evaluated using Promega dual luciferase reporter assay (Tokyo, Japan). In consideration of the transfection efficiency, all of the data were standardized by the activity of Renilla-luciferase.

[4] = target: T1, binding of Flag-ERAP1 and His-PHB2/REA (Homo sapiens, UniProt Q99623); assay: Ni-resin pull-down and Western of His-PHB2/REA with Flag-ERAP1 cell lysate; conditions: pull-down, each concentration
T1 construct: human PHB2 (residues 77-244); thioredoxin (TrxA) (N); TEV protease cut site (N); made in house; host or cells: PHB2: Escherichia coli BL21 star (DE3); Flag-ERAP1: lysate of transiently transfected COS-7 cells
Method: FIG. 2 is a diagram illustrating the results of immunoblotting analysis by which binding of the ERAP1-peptide to PHB2 was evaluated. The cell lysate of the COS-7 cells temporarily transfected with the Flag-tagged ERAP1 plasmid was incubated for 1 hour together with 6×His-tagged recombinant PHB2 protein (10 μg) and the ERAP1-peptide, the ERAP1-scramble peptide, or the ERAP1-mutant peptide in each concentration shown in the figure. Then, His-PHB2 was subjected to pull-down with Ni-NTA agarose (Ni-resin).
The partial sequence of human PHB2 (residues 77-244) was cloned into NcoI and XhoI sites of pTAT6 expression vector (see gift by Dr. Marko Hyvonen, University of Cambridge.: Peranen J, et al., (1996). Anal Biochem. 236, 371-373.) so as to become inframe with the hexahistidine tag, thioredoxin (TrxA) and TEV protease cut site (TEV site) at the amino terminal. The recombinant protein was expressed in Escherichia coli BL21 star (DE3) cell line (Invitrogen, Carlsbad, Calif.), and purified using Hi-Trap Kit (GE Healthcare). Finally, the recombinant protein was purified according to the protocol of the supplier using superdex 200 gel filtration column (GE Healthcare) with high performance liquid chromatography (HPLC). […]

T1 sequence (Q99623 77-244): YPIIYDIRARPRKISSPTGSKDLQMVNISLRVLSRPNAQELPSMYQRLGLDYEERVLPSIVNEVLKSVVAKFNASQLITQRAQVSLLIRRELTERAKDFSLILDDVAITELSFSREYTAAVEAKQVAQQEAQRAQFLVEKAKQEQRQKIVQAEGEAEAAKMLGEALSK

Compound: C=C1[C@@H](O)[C@@H]2O[C@]3(CC[C@H](/C=C/[C@@H](C)[C@@H]4CC(C)=C[C@@]5(O[C@H](C[C@@](C)(O)C(=O)O)CC[C@H]5O)O4)O3)CC[C@H]2O[C@@H]1[C@@H](O)C[C@H](C)[C@H]1O[C@@]2(CCCCO2)CC[C@H]1C [okadaic acid]
- E2-dependent PHB2/REA phosphorylation (Ser39) ([1]; 20 nM of okadaic acid): recognized to be recovered
- E2-dependent PHB2/REA phosphorylation (Ser39) ([1]; 40 μM): confirmed to decrease

Compound: ERAP1-HA-peptide: ERAP1-peptide to which HA tag was added (RRRRRRRRRRRQMLSDLTLQLRQR; also: HA tag added, place not given here)
- nuclear translocation of PHB2/REA, temporal [2]: directly bound to PHB2/REA and was nuclear-translocated at the same time
- transcriptional activity of ERα in ERE [3]: suppressed the transcriptional activity of ERα
- direct binding to His-PHB2/REA [4]: directly bound to His-PHB2/REA, depending on the concentration
- inhibition of binding of Flag-ERAP1 and His-PHB2/REA [4]: competitively inhibited
